# Earlier results in patent US20050267009A1, “Method of Treatment of Acute and Persistent Pain” (priority 2004, published 2005).
# Read-outs that look alike come from different tables or passages of the source.
# B1: IL-10: natural anti-inflammatory cytokine (protein, UniProt P29456 19-178, looked up)
# Interleukin-10: SKGHSIRGDNNCTHFPVSQTHMLRELRAAFSQVKTFFQKKDQLDNILLTDSLLQDFKGYLGCQALSEMIKFYLVEVMPQAENHGPEIKEHLNSLGEKLKTLWIQLRRCHRFLPCENKSKAVEQVKNDFNKLQDKGVYKAMNEFDIFINCIEAYVTLKMKN
# B2: nerve growth factor: prototypic member of the neurotrophin family (protein, UniProt P25427 122-241, looked up)
# Beta-nerve growth factor: SSTHPVFHMGEFSVCDSVSVWVGDKTTATDIKGKEVTVLGEVNINNSVFKQYFFETKCRAPNPVESGCRGIDSKHWNSYCTTTHTFVKALTTDDKQAAWRFIRIDTACVCVLSRKAARRG
# B3: IL-1 beta: proinflammatory cytokine interleukin-1 beta (protein, UniProt Q63264 117-268, looked up)
# Interleukin-1 beta: VPIRQLHCRLRDEQQKCLVLSDPCELKALHLNGQNISQQVVFSMSFVQGETSNDKIPVALGLKGLNLYLSCVMKDGTPTLQLESVDPKQYPKKKMEKRFVFNKIEVKTKVEFESAQFPNWYISTSQAEHRPVFLGNSNGRDIVDFTMEPVSS
# Tests used:
# [1] = test system: glia and proinflammatory cytokines; conditions: intrathecal
# nerve root injury = conditions: topical application of disk tissue (nucleus pulposus)
# trigeminal nerve fibers = conditions: dura mater
# NOS-2 = conditions: macrophages and astroglial cells, decreased NOS-2 activity and protein
# interleukin-10 = conditions: prolonged administration
# spinal VR1 receptors = target: T1, spinal VR1 receptors (Rattus norvegicus, UniProt O35433); conditions: spinal 0.5-30 microM; greater extent in sham operated than SNL rats
# T1 construct: VR1 receptors, present on Adelta- and C-fibres and post-synaptic sites within the spinal cord dorsal horn; endogenous in cells; host or cells: rat spinal cord, in vivo electrophysiology
# T1 sequence (O35433 whole entry): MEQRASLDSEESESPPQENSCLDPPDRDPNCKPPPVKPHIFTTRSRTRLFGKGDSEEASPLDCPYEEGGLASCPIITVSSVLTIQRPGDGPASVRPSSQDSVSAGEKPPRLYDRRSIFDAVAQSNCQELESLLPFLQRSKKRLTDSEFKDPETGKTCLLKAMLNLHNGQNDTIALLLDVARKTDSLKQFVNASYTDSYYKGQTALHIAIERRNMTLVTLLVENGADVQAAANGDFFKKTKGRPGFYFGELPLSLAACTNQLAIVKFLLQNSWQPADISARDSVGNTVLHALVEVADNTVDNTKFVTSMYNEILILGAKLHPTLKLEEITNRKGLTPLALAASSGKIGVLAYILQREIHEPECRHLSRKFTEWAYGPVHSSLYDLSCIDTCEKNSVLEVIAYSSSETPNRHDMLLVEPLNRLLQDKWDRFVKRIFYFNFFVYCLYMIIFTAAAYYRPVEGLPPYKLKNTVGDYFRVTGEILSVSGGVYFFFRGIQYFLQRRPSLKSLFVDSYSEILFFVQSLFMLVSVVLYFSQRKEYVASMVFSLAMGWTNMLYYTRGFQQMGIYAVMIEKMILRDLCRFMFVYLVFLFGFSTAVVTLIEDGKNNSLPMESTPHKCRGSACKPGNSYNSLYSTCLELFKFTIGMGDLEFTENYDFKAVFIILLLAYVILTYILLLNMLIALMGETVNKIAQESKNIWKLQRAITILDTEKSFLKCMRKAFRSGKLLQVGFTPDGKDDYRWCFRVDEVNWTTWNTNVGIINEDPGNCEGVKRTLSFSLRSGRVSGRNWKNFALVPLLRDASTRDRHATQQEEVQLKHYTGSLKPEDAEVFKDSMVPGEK
# COX = conditions: 5 and 7 days after injection
# prostaglandin E2 (PGE2) = conditions: 10 days after CCI, treatment started 12 hours after surgery
# nociceptors = conditions: rat skin in vitro; for sensitization of the heat-evoked CGRP release: applied alone; for EC(50) of heat sensitization of CGRP release: heat-evoked CGRP release
# [2] = test system: spinal neuronal responses
# [3] = in vivo
# [4] = human, in vivo
# [5] = test system: spinal cord nociceptive transmission; conditions: for wind-up activity: normal rats
# [6] = systemic HU210 60 microg/kg, sham-operated rats
molecule,measurement,setting,value
N=C(N)NC(=O)c1nc(Cl)c(N)nc1N [Amiloride],blockade of ASICs,ASICs,not potent and not selective
C/C(=N\N=C(N)N)c1cc(NC(=O)CCCCCCCCC(=O)Nc2cc(/C(C)=N/N=C(N)N)cc(/C(C)=N/N=C(N)N)c2)cc(/C(C)=N/N=C(N)N)c1.Cl.Cl.Cl.Cl [CNI-1493],ipsilateral and mirror-image SIN-induced allodynias,[1],prevented and reversed
CCCCCCC(C)(C)c1cc(O)c2c(c1)OC(C)(C)[C@@H]1CC=C(CO)C[C@@H]21 [HU210],C-fibre mediated post-discharge response of spinal neurones,"spinal neurones; spinal administration 0.5-500 ng/50 microl, sham operated rats",significantly reduced
same,Adelta-fibre evoked responses of spinal neurones,"spinal neurones; spinal administration, both sham operated and nerve injured rats",significantly reduced
same,Adelta-fibre evoked responses,spinal neurones; [6],48+/−5 % of control
same,overall C-fibre evoked response,spinal neurones; [6],54+/−8 % of control
same,post-discharge response,spinal neurones; [6],28+/−12 % of control
same,C- or Abeta-fibre evoked responses of spinal neurones,"spinal neurones; systemic administration, nerve injured rats",did not significantly reduce
[Cl-].[Cl-].[Mn+2].c1cc2nc(c1)CN[C@@H]1CCCC[C@H]1NCCN[C@@H]1CCCC[C@H]1NC2 [M40403],anti-hyperalgesic effects with naloxone,superoxide,not reversed
CC(=O)CCCCn1c(=O)c2c(ncn2C)n(C)c1=O [Pentoxifylline],nerve root injury and swelling (dorsal root ganglion compartment syndrome),nerve root injury,prevented
CNS(=O)(=O)Cc1ccc2[nH]cc(CCN(C)C)c2c1 [Sumatriptan],nerve fiber induced plasma extravasation,trigeminal nerve fibers,blocks
same,nerve fiber mediated vasodilatation and dural arterial flow,trigeminal nerve fibers,only minor effects
N=C(N)NCCCCN [agmatine],production of nitric oxide,NOS-2,inhibits
CN(C)CCC=C1c2ccccc2CCc2ccccc21 [amitriptyline],secretion of the anti-inflammatory cytokine interleukin-10,interleukin-10,significant increase
Oc1cc2c(cc1O)CN(C(=S)NCCc1ccc(Cl)cc1)CCC2 [capsazepine],noxious evoked responses of spinal neurones,spinal VR1 receptors,reduced
CNCCCN1c2ccccc2CCc2ccccc21 [desipramine],secretion of the anti-inflammatory cytokine interleukin-10,interleukin-10,significant increase
O=C(O)CC(O)(C(=O)O)C(F)C(=O)O (stereo not shown) [fluorocitrate],ipsilateral and mirror-image SIN-induced allodynias,[1],reversed
CC(C)Cc1ccc(C(C)C(=O)O)cc1 (stereo not shown) [ibuprofen],mechanical allodynia induced by intraneural TNF,COX,reduced
same,PGE2 levels in injured nerves and DRG,prostaglandin E2 (PGE2),reversed
CCCn1cnc2c1c(=O)n(CCCCC(C)=O)c(=O)n2C [propentofylline],glial activation and enhanced spinal proinflammatory cytokines,glial activation; following peripheral nerve injury,inhibit
same,analgesic activity of morphine,"glial activation; propentofylline treatment, neuropathic pain",restoration
O=C1CCC(N2C(=O)c3ccccc3C2=O)C(=O)N1 (stereo not shown) [thalidomide],epineurial IL-10 immunoreactive macrophages and recovery of endoneurial IL-10-IR,TNF-alpha; CCI,enhanced
same,thermal hyperalgesia and mechanical allodynia,TNF-alpha; CCI,reduces
same,endoneurial IL-1 beta-immunoreactivity and IL-6-IR,"TNF-alpha; CCI, lesioned rat sciatic nerve",not altered
same,increase of endoneurial TNF-alpha,"TNF-alpha; first week after CCI, immunohistochemistry and ELISA",reduced
same,decrease in CGRP-IR and SP-IR in the dorsal horn,TNF-alpha; operated animals,not influenced
same,increase in met-enkephalin in the dorsal horn,TNF-alpha; operated animals,further enhanced
IL-6: cytokine interleukin-6,sensitization of the heat-evoked CGRP release,nociceptors,did not induce heat sensitization
same,"electrically evoked C-fibre, initial C-fibre, post discharge and wind-up","[2]; following neuropathy, spinal",dose-related inhibition
same,electrically evoked neuronal responses,"[2]; naive rats, spinal 100-500 ng",no significant effect
same,mechanical neuronal responses,"[2]; neuropathic rats, spinal",markedly inhibited
IL-8: cytokine interleukin-8,sensitization of the heat-evoked CGRP release,nociceptors,not
TNF-alpha,maximum effect on heat-evoked CGRP release,nociceptors,350%
same,EC(50) of heat sensitization of CGRP release,nociceptors,3.1 ng/mL
B1,inflammatory mediator TNF-alpha after SCI,spinal cord injury; rats with SCI,decrease
same,less spinal cord tissue loss than in untreated rats,spinal cord injury; single injection within half an hour of SCI,49%
B2,hyperalgesia,[3],rapid onset of hyperalgesia
same,adverse event,[4],induction of pain has been the major adverse event
B3,wind-up scores,"[5]; monoarthritic rats, any dose",did not significantly change
same,wind-up activity,[5]; higher doses (8.0 ng),marginal insignificant effect
same,wind-up activity,[5]; low i.t. doses 0.03-2.0 ng,dose-dependently enhanced
same,maximum effect on heat-evoked CGRP release,nociceptors,~600%
same,EC(50) of heat sensitization of CGRP release,nociceptors,2.7 ng/mL
